The assay deals with TARP γ8 dependent AMPA receptor (GRIA1o-CACNG8 fusion construct) (Homo sapiens (Human), UniProt P42261+Q8WXS5). Description: Calcium flux assay (FLIPR), inhibition of glutamate response of GluA1o-γ8 channel. It counts as cell-based. As to conditions: HEK293 cells stably expressing GRIA1o-CACNG8 fusion; calcium flux after 15 μM glutamate; negative log of the IC50 in molar. An excerpt: This assay was used to test compounds for their ability to inhibit TARP γ8 dependent AMPA receptor activity. The AMPA receptor is a non-selective cation channel activated by glutamate. […] But, this desensitization is incomplete, and a substantial steady-state current remains in the sustained presence of glutamate (Cho et al. (2007). “Two families of TARP isoforms that have distinct effects on the kinetic properties of AMPA receptors and synaptic currents.” Neuron 55(6): 890-904).
Chain of TARP γ8 dependent AMPA receptor (GRIA1o-CACNG8 fusion construct) (P42261 other isoform, or with tags, fused parts or gaps): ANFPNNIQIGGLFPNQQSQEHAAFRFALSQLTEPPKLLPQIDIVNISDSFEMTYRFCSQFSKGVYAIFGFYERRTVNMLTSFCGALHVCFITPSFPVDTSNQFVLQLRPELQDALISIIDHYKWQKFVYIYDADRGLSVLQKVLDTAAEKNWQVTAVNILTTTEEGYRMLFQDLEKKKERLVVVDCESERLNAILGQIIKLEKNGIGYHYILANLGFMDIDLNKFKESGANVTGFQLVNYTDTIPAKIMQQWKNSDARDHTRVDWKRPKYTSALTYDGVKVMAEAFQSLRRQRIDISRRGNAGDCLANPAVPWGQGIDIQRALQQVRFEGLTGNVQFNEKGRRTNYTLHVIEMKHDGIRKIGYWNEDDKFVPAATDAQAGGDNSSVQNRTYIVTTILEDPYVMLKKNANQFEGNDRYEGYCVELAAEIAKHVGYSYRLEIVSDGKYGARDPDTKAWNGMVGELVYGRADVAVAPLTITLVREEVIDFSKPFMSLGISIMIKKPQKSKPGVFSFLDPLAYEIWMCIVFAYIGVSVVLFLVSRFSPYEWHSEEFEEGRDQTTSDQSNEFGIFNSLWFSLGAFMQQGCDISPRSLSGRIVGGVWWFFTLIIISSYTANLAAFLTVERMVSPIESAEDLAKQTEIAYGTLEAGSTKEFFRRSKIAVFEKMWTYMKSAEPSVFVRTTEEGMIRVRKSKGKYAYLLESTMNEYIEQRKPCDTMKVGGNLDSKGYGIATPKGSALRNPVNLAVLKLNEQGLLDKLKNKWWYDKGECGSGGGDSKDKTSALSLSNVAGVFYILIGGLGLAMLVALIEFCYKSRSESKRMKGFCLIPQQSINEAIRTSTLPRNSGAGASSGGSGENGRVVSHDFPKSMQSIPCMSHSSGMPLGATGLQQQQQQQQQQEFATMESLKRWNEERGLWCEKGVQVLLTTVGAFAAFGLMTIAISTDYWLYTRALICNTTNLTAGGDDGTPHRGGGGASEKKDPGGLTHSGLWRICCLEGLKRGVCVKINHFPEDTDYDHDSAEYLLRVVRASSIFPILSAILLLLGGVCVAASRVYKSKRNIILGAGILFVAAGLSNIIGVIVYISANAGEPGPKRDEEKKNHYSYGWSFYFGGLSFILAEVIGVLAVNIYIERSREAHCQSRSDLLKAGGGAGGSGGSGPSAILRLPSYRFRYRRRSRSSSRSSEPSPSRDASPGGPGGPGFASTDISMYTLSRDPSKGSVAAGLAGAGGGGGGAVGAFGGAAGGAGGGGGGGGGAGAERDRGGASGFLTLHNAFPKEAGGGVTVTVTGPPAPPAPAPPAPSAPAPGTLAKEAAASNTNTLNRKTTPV
An in vitro assay was used to determine the potency of test compounds as inhibitors of the glutamate response of the channel formed by GluA10-γ8. To ensure a 1:1 stoichiometry of GluA1o and γ8 subunits in the expressed channel, a fusion of the cDNAs for GRIA1o and CACNG8 was used. Following Shi et al (2009) “The stoichiometry of AMPA receptors and TARPs varies by neuronal cell type.” Neuron 62(5): 633-640), the C-terminus of the cDNA for GRIA1o was fused to the N-terminus of the cDNA for γ8. The linker sequence was […]. Channels expressed with this construct appear to have similar properties to channels formed by co-expression of GRIA1o with an excess of CACNG8 (Shi et al. 2009). A clonal cell line in HEK293 cells stably expressing this construct, with a geneticin selection marker, was generated for use in this assay.
Cell expressing the GRIA1o-CACNG8 fusion construct were grown in a monolayer in 96- or 384-well microtiter plates. They were washed with assay buffer (135 mM NaCl, 4 mM KCl, 3 mM CaCl2, 1 mM MgCl2, 5 mM glucose, 10 mM HEPES, pH 7.4, 300 mOs) using a Biotek EL405 plate washer. The cells were then loaded with a calcium-sensitive dye (Calcium-5 or Calcium-6, Molecular Devices) and the test compounds at a range of concentrations. Calcium flux following the addition of 15 μM glutamate was monitored using a Molecular Devices FLIPR Tetra.
The fluorescence in each well was normalized to the fluorescence of negative and positive control wells. The negative control wells had no added compounds, and the positive control wells had been incubated with 10 μM CP465022 (a non-subtype-selective AMPA receptor antagonist) (Lazzaro et al. (2002). “Functional characterization of CP-465,022, a selective, noncompetitive AMPA receptor antagonist.” Neuropharmacology 42(2): 143-153). The responses to glutamate as functions of the test compound concentrations were fitted to a four-parameter logistic function. The fitted parameter corresponding to the midpoint was taken to be the potency of inhibition of the compound. The data in Table 4 below illustrates the observed potency for the compounds described herein. pIC50 refers to the negative log of the IC50 in molar.
(Calcium assays in cells follow changes in intracellular calcium, usually with a dye or a luminescent sensor.)
As usually defined, the IC50 is the midpoint of a concentration-inhibition curve. For the compound `FC(F)(F)c1ccc2cc(C3CC3)nn2c1-c1cc(Cl)c2[nH]ncc2c1` [Example 70, 7-Chloro-5-(2-cyclopropyl-6-(trifluoromethyl)pyrazolo[1,5-a]pyridin-7-yl)-1H-indazole], the IC50 was 0.0631 nM.
Same read-out and setting: the value for `Cc1nc2ccc(C(F)(F)F)c(-c3cc(Cl)c4c(c3)CC(=O)N4)n2n1` [Example 23, 7-Chloro-5-(2-methyl-6-(trifluoromethyl)-[1,2,4]triazolo[1,5-a]pyridin-5-yl)indolin-2-one] was 10 nM; that for `CC(F)(F)c1nc2ccc(C(F)(F)F)c(-c3cc(Cl)c4[nH]ncc4c3)n2n1` [Example 42, 5-(7-Chloro-1H-indazol-5-yl)-2-(1,1-difluoroethyl)-6-(trifluoromethyl)-[1,2,4]triazolo[1,5-a]pyridine] was 0.1 nM.
Regarding `O=C1Cc2cc(-c3c(C(F)(F)F)ccc4cc(C(F)(F)F)nn34)cc(Cl)c2N1` [Example 66, 5-(2,6-Bis(trifluoromethyl)pyrazolo[1,5-a]pyridin-7-yl)-7-chloroindolin-2-one], the IC50 was 0.0126 nM.
Still for that read-out and setting: then `Cc1cc(-c2c(C(F)(F)F)ccc3nc(C(F)(F)F)nn23)cc2cn[nH]c12` [Example 2, 5-(7-Methyl-1H-indazol-5-yl)-2,6-bis(trifluoromethyl)-[1,2,4]triazolo[1,5-a]pyridine], with 0.2 nM; and `CCc1cc(C(F)(F)F)c(-c2cc(C)c3c(c2)CC(=O)N3)n2nc(C3CC3)nc12` [Example 82, 5-(2-Cyclopropyl-8-ethyl-6-(trifluoromethyl)-[1,2,4]triazolo[1,5-a]pyridin-5-yl)-7-methylindolin-2-one], with 0.316 nM; and `FC(F)(F)c1cc2ccc(C(F)(F)F)c(-c3cc(Cl)c4[nH]ncc4c3)n2n1` [Example 63, 5-(2,6-Bis(trifluoromethyl)pyrazolo[1,5-a]pyridin-7-yl)-7-chloro-1H-indazole], with 0.0158 nM.
As usually defined, the pIC50 is the negative decadic logarithm of the IC50, by convention in mol/L. As for `FC(F)(F)c1ccc2cc(C3CC3)nn2c1-c1cc(Cl)c2[nH]ncc2c1` [Example 118, 7-Chloro-5-(2-cyclopropyl-6-(trifluoromethyl)pyrazolo[1,5-a]pyridin-7-yl)-1H-indazole], the negative-log IC50 (pIC50) is listed as 10.2.
Take `FC(F)c1ccc2nc(C(F)(F)F)nn2c1-c1cc(Cl)c2[nH]ncc2c1` [Example 16, 5-(7-Chloro-1H-indazol-5-yl)-6-(difluoromethyl)-2-(trifluoromethyl)-[1,2,4]triazolo[1,5-a]pyridine]: the IC50 was 0.1 nM.
For the compound `Cc1nc2ccc(C(F)(F)F)c(-c3cc(C)c4[nH]ncc4c3)n2n1` [Example 22, 2-Methyl-5-(7-methyl-1H-indazol-5-yl)-6-(trifluoromethyl)-[1,2,4]triazolo[1,5-a]pyridine], the half-maximal inhibitory concentration (IC50) is 12.6 nM.
For `Cc1cc(C(F)F)c(-c2cc(Cl)c3c(c2)CC(=O)N3)n2nc(C(F)(F)F)cc12` [Example 124, 7-Chloro-5-[6-(difluoromethyl)-4-methyl-2-(trifluoromethyl)pyrazolo[1,5-a]pyridin-7-yl]indolin-2-one], the IC50 was 0.251 nM.
With `CCc1nc2ccc(C(F)F)c(-c3cc(C)c4c(c3)CC(=O)N4)n2n1` [Example 47, 5-(6-(Difluoromethyl)-2-ethyl-[1,2,4]triazolo[1,5-a]pyridin-5-yl)-7-methylindolin-2-one], the IC50 is 3.98 nM.
With `COc1cc(-c2c(C(F)(F)F)ccc3nc(C(F)F)nn23)cc2c1NC(=O)C2` [Example 12, 5-(2-(Difluoromethyl)-6-(trifluoromethyl)-[1,2,4]triazolo[1,5-a]pyridin-5-yl)-7-methoxyindolin-2-one], the concentration for half-maximal inhibition (IC50) was 5.01 nM.
Take `COc1cc(-c2c(C(F)(F)F)cc(C)c3nc(C(F)(F)F)nn23)cc2c1NC(=O)C2` [Example 106, 7-Methoxy-5-(8-methyl-2,6-bis(trifluoromethyl)-[1,2,4]triazolo[1,5-a]pyridin-5-yl)indolin-2-one]: the half-inhibitory concentration (IC50) is 1.26 nM.
Same read-out and setting: then `COc1ccc2nc(C(F)F)nn2c1-c1cc(C(F)(F)F)c2[nH]ncc2c1` [Example 15, 2-(Difluoromethyl)-6-methoxy-5-(7-(trifluoromethyl)-1H-indazol-5-yl)-[1,2,4]triazolo[1,5-a]pyridine], with 2 nM; and `FC(F)(F)c1ccc2nc(C3CC3)nn2c1-c1cc(Cl)c2[nH]ncc2c1` [Example 38, 5-(7-Chloro-1H-indazol-5-yl)-2-cyclopropyl-6-(trifluoromethyl)-[1,2,4]triazolo[1,5-a]pyridine], with 0.126 nM; and `Cc1cc(-c2c(C(F)(F)F)ccc3cc(C(F)(F)F)nn23)cc2c1NC(=O)C2` [Example 65, 5-(2,6-Bis(trifluoromethyl)pyrazolo[1,5-a]pyridin-7-yl)-7-methylindolin-2-one], with 0.0158 nM.
On to `Cc1cc(-c2c(C(F)F)cc(C)c3cc(C(F)(F)F)nn23)cc2c1NC(=O)C2` [Example 122, 5-[6-(Difluoromethyl)-4-methyl-2-(trifluoromethyl)pyrazolo[1,5-a]pyridin-7-yl]-7-methyl-indolin-2-one], for which the 50% inhibitory concentration (IC50) was 0.0501 nM.
Still for that read-out and setting: the value for `Cc1nc2ccc(C(F)(F)F)c(-c3cc(C)c4c(c3)CC(=O)N4)n2n1` [Example 24, 7-Methyl-5-(2-methyl-6-(trifluoromethyl)-[1,2,4]triazolo[1,5-a]pyridin-5-yl)indolin-2-one] was 20 nM.
Consider `Cc1cc(-c2c(C(F)(F)F)ccc3nc(C(F)F)nn23)cc2cn[nH]c12` [Example 8, 5-(7-Methyl-1H-indazol-5-yl)-2-(difluoromethyl)-6-(trifluoromethyl)-[1,2,4]triazolo[1,5-a]pyridine], for which the IC50 is 0.398 nM.
For the compound `CCc1nc2c(C)cc(C(F)F)c(-c3cc(Cl)c4[nH]ncc4c3)n2n1` [Example 115, 5-(7-Chloro-1H-indazol-5-yl)-6-(difluoromethyl)-2-ethyl-8-methyl-[1,2,4]triazolo[1,5-a]pyridine], the IC50 was 2 nM.
For the compound `CCc1nc2ccc(-c3ccc(F)cc3)c(-c3cc(C)c4[nH]ncc4c3)n2n1` [Example 61, 2-Ethyl-6-(4-fluorophenyl)-5-(7-methyl-1H-indazol-5-yl)-[1,2,4]triazolo[1,5-a]pyridine], the IC50 was 0.2 nM.
Take `Cc1cc(C(F)(F)F)c(-c2cc(Cl)c3c(c2)CC(=O)N3)n2nc(C(F)(F)F)nc12` [Example 103]: the IC50 is 0.158 nM.
For `CCc1nc2c(C)cc(C(F)(F)F)c(-c3cc(Cl)c4[nH]ncc4c3)n2n1` [Example 35, 5-(7-Chloro-1H-indazol-5-yl)-2-ethyl-8-methyl-6-(trifluoromethyl)-[1,2,4]triazolo[1,5-]pyridine], the IC50 is 0.398 nM.
For `CCCc1nc2c(C)cc(C(F)(F)F)c(-c3cc(Cl)c4[nH]ncc4c3)n2n1` [Example 83, 5-(7-Chloro-1H-indazol-5-yl)-8-methyl-2-propyl-6-(trifluoromethyl)-[1,2,4]triazolo[1,5-a]pyridine], the IC50 was 0.2 nM.
Same read-out and setting: the value for `CCc1nc2c(Cl)cc(C(F)(F)F)c(-c3cc(Cl)c4[nH]ncc4c3)n2n1` [Example 29, 8-Chloro-5-(7-chloro-1H-indazol-5-yl)-2-ethyl-6-(trifluoromethyl)-[1,2,4]triazolo[1,5-a]pyridine] was 0.398 nM; that for `FC(F)c1ccc2cc(C(F)(F)F)nn2c1-c1cc(Cl)c2[nH]ncc2c1` [Example 120, 7-(7-Chloro-1H-indazol-5-yl)-6-(difluoromethyl)-2-(trifluoromethyl)pyrazolo[1,5-a]pyridine] was 0.0158 nM.
Take `Cc1cc(C(F)F)c(-c2cc(Cl)c3[nH]ncc3c2)n2nc(C(F)(F)F)nc12` [Example 109, 5-(7-Chloro-1H-indazol-5-yl)-6-(difluoromethyl)-8-methyl-2-(trifluoromethyl)-[1,2,4]triazolo[1,5-a]pyridine]: the pIC50 was found to be 9.6.
As to `Cc1cc(-c2c(C(F)(F)F)ccc3cc(C(C)C)nn23)cc2c1NC(=O)C2` [Example 71, 5-(2-Isopropyl-6-(trifluoromethyl)pyrazolo[1,5-a]pyridin-7-yl)-7-methylindolin-2-one], the IC50 is 0.0158 nM.
For the compound `CCc1nc2ccc(C(F)(F)F)c(-c3cc(Cl)c4c(c3)CC(=O)N4)n2n1` [Example 27, 7-Chloro-5-(2-ethyl-6-(trifluoromethyl)-[1,2,4]triazolo[1,5-a]pyridin-5-yl)indolin-2-one], the IC50 is 1.26 nM.

Values taken from patent publication US10087185B2 (Janssen Pharmaceutica NV, priority 2016, dated 2018).
